Measurements as given in US20260021061A1, “ARIADNE AND ANALOGS FOR THE TREATMENT OF NEUROLOGICAL AND NEUROMUSCLAR DISORDERS” (priority 2022, published 2026).
Like-named read-outs stand apart in the source and are kept apart here.

How the values were obtained:
[1] = Pharmacokinetic assessment, plasma and brain; assay type: in vivo, male C57BL/6 mice; conditions: for Mean brain Concentration (ng/g): LLOQ 2.06 ng/mL for brain; for AUC(0-t): read-out: AUClast (hr*ng/mL), plasma
Method: PK assessments were performed at Sai Life (Telangana, India) according to the following general procedure. A total twenty-seven male C57BL/6 mice were used in this study with 3 mice per time point. Animals were administered subcutaneously at 10 mg/kg dose of test article. The formulation vehicle used was 0.9% normal saline. Blood samples (approximately 60 μL) were collected under light isoflurane anesthesia (Surgivet®) from retro orbital plexus from a set of three mice at 0.08, 0.25, 0.5, 1, 2, 4, 8, 24 and 48 hr. Immediately after blood collection, plasma was harvested by centrifugation at 4000 rpm, 10 min at […] and samples were stored at −70±10° C. until bioanalysis. Following blood collection, immediately animals were sacrificed followed by cutting abdominal vena-cava and whole body was perfused from heart using 10 mL of normal saline. Brain samples were collected from set of three mice at 0.08, 0.25, 0.5, 1, 2, 4, 8, 24 and 48 hr. After isolation, brain samples were rinsed three times in ice cold normal saline (for 5-10 seconds/rinse using ˜5-10 mL normal saline in disposable petri dish for each rinse) and dried on blotting paper. Brain samples were homogenized using ice-cold phosphate buffer saline (pH−7.4). Total homogenate volume was three times the tissue weight. All homogenates were stored below −70±10° C. until bioanalysis. All samples were processed for analysis by protein precipitation method and analyzed with fit-for-purpose LC-MS/MS method (LLOQ=5.16 ng/mL for plasma and 2.06 ng/mL for brain).

[2] = biological target: 5-HT2A (Homo sapiens, UniProt P28223); experiment: IP1 agonism (IP1 formation assay), Cerep, Eurofins; assay type: cell-based; parameters: purchased Cerep, Eurofins (contract assay); conditions: duplicate averages only
From the text: (§1) FIGS. 8A-B Comparison of 5-HT2A (a) and 5-HT2B (b) receptor in IP1 formation assay for selected compounds, performed at Cerep, Eurofins.
(§2) IP1 agonism summary for selected compounds (duplicate averages only), performed at Cerep, Eurofins.

[3] = biological target: T1, 5-HT2B (Homo sapiens, UniProt P41595); experiment: IP1 agonism (IP1 formation assay), Cerep, Eurofins; assay type: cell-based; parameters: purchased Cerep, Eurofins (contract assay); conditions: duplicate averages only
From the text: as §1, §2

[4] = biological target: T1, 5-HT2B; experiment: Calcium flux assay; assay type: cell-based; conditions: read-out: Emax relative to 5-HT, calcium flux
Method: Therefore, an orthogonal assay measuring calcium flux was also performed for the 5-HT2 receptors (Klein et al., 2020).

[5] = system: rats; conditions: 10 mg/kg, s.c. or i.p.; absence of stimulant-like effects; cited from earlier work
[6] = biological target: 5-HT4 receptor (Homo sapiens, UniProt Q13639); experiment: 5-HTome G protein activation BRET assay; conditions: 5-HTome screen
Method: All BRET assays were conducted using BRET2 in HEK293T cells (ATCC CRL-11268; mycoplasma-free), which were subcultured in high-glucose DMEM (VWR) supplemented with 10% FBS (Life Technologies).
Constructs in G protein-dissociation BRET assays were derived from the codon-optimized Tango pcDNA3.1 library (Addgene) with V2tail/TEV/tTA encoding regions deleted to yield “de-Tango” constructs. […] All Gα-Rluc8, Beta, and GFP2-γ constructs were derived from the TRUPATH pcDNA5/FRT/TO library (Addgene). […]
On the day of the assay, plates were decanted and 20 uL of drug buffer per well (1×HBSS, 20 mM HEPES, pH 7.4) was added using a Multidrop (ThermoFisher Scientific), and plates were allowed to equilibrate at 37° C. in a humidified incubator before receiving drug stimulation. […] Before reading, addition of coelenterazine 400a (5 uM final concentration; Nanolight Technology) was performed by the [sequence]. Immediately after, plates were read at 400 nm Rluc and fluorescent GFP2 emission at 510 nm for BRET2 at 0.8 second per well using a PheraStarFSX (BMB Lab Tech).
The BRET ratios of 510/400 luminescence were calculated per well and were plotted as a function of drug concentration using Graphpad Prism 5 or 9 (Graphpad Software Inc., San Diego, CA). […]

[7] = biological target: T2, Cholinesterase, Acetyl, ACES (Homo sapiens, UniProt P22303); experiment: SafetyScreen44 104010; assay type: biochemical; conditions: 10 μM; substrate Acetylthiocholine; recombinant
T2 construct: Eurofins-Panlabs (contract screen) 104010
Method: (§3) A broad screen of 44 molecular targets (SafetyScreen44, Eurofins-Panlabs) for Ariadne were performed, which includes G protein-coupled receptors, steroid nuclear receptors, ion channels, neurotransmitter transporters, and metabolic and signaling enzymes. Only two molecular targets, 5-HT2A and 5-HT2B receptors, emerged above the positive hit threshold, defined as 50% displacement of standard radioligands by 10 uM concentration of Ariadne (FIG. 1b, and Table 1).
(§4) For species, “H”=human, “R”=rat. Test compound screened at all targets at concentration of 10 μM.

[8] = biological target: T3, Adrenergic β1 (Homo sapiens, UniProt P08588); experiment: SafetyScreen44 204010; assay type: binding; conditions: 10 μM; [125I]Cyanopindolol; recombinant
T3 construct: Eurofins-Panlabs (contract screen) 204010
Method: as §3, §4

[9] = biological target: T4, Adrenergic β2 (Homo sapiens, UniProt P07550); experiment: SafetyScreen44 204110; assay type: binding; conditions: 10 μM; [3H]CGP-12177; recombinant
T4 construct: Eurofins-Panlabs (contract screen) 204110
Method: as §3, §4

[10] = biological target: T5, Serotonin (5-Hydroxytryptamine) 5-HT3 (Homo sapiens, UniProt P46098); experiment: SafetyScreen44 271910; assay type: binding; conditions: 10 μM; [3H]GR-65630; recombinant
T5 construct: purchased Eurofins-Panlabs (contract screen SafetyScreen44) assay ID 271910
Method: as §3, §4

[11] = biological target: T6, Vasopressin V1A (Homo sapiens, UniProt P37288); experiment: SafetyScreen44 287530; assay type: binding; conditions: 10 μM; [125I]Phenylacetyl Tyr(Me)PheGlnAsnArgProArgTyr; recombinant
T6 construct: purchased Eurofins-Panlabs (contract screen SafetyScreen44) assay ID 287530
Method: as §3, §4

[12] = SC 10 mg/kg, 24 hr, LLOQ 5.16 ng/mL
[13] = SC 10 mg/kg, 48 hr, LLOQ 5.16 ng/mL
[14] = male, C57BL/6, mouse, brain and plasma, SC 10 mg/kg, read-out: Brain/Plasma ratio
[15] = male, C57BL/6, mouse, brain, SC 10 mg/kg, read-out: Mean brain Concentration
[16] = male, C57BL/6, mouse, brain, SC 10 mg/kg, 8 hr, read-out: Mean brain Concentration
[17] = male, C57BL/6, mouse, plasma, SC 10 mg/kg, read-out: Mean plasma Concentration
[18] = male, C57BL/6, mouse, SC 10 mg/kg, brain, read-out: Cmax (ng/g), brain
[19] = male, C57BL/6, mouse, SC 10 mg/kg, brain, read-out: T1/2 (hr), brain (converted)
[20] = male, C57BL/6, mouse, SC 10 mg/kg, brain, read-out: Tmax (hr), brain
[21] = male, C57BL/6, mouse, SC 10 mg/kg, plasma
[22] = male, C57BL/6, mouse, SC 10 mg/kg, plasma, read-out: Cmax (ng/mL), plasma
[23] = male, C57BL/6, mouse, SC 10 mg/kg, plasma, read-out: T1/2 (hr), plasma (converted)
[24] = male, C57BL/6, mouse, SC 10 mg/kg, plasma, read-out: Tmax (hr), plasma
[25] = EC50 (5-HT2A) (M), Table 7, IP1 agonism
[26] = EC50 (5-HT2B) (M), Table 7, IP1 agonism

T1 sequence (P41595 whole entry): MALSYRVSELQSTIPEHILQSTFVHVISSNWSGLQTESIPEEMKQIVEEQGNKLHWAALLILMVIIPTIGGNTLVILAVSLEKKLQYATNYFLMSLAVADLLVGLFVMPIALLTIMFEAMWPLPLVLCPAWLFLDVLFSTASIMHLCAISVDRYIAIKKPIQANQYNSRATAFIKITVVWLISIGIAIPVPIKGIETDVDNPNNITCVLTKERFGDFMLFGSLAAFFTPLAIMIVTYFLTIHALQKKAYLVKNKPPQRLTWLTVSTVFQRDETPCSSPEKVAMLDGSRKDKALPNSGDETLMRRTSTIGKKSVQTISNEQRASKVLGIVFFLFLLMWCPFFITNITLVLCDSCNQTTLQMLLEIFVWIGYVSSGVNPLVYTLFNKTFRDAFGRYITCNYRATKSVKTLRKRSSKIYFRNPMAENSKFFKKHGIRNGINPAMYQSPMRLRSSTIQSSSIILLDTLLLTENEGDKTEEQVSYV
Sequence of 5-HT2A (P28223 whole entry): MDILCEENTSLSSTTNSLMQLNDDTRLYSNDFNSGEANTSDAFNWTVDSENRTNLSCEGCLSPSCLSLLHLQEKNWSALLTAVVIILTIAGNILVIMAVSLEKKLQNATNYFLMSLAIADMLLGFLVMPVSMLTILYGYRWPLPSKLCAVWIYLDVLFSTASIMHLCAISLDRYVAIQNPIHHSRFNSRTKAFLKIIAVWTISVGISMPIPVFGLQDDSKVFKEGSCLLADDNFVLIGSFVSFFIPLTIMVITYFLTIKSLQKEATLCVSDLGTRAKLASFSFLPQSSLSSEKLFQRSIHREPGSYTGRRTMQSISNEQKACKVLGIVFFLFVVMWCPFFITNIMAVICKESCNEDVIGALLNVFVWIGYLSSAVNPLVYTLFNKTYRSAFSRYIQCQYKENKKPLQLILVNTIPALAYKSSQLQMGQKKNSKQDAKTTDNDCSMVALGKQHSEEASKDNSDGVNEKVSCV
Sequence of 5-HT4 receptor (Q13639 whole entry): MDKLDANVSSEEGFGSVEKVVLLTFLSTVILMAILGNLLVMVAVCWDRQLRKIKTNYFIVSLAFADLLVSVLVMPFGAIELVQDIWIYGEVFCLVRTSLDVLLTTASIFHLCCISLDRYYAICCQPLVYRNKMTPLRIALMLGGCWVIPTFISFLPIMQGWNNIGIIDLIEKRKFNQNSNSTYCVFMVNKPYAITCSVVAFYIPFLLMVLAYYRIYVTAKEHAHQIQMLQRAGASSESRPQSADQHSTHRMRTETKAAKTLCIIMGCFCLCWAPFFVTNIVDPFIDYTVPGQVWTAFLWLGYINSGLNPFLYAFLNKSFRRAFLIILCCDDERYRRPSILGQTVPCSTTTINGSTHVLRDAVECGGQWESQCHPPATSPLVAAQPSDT
T6 sequence (P37288 whole entry): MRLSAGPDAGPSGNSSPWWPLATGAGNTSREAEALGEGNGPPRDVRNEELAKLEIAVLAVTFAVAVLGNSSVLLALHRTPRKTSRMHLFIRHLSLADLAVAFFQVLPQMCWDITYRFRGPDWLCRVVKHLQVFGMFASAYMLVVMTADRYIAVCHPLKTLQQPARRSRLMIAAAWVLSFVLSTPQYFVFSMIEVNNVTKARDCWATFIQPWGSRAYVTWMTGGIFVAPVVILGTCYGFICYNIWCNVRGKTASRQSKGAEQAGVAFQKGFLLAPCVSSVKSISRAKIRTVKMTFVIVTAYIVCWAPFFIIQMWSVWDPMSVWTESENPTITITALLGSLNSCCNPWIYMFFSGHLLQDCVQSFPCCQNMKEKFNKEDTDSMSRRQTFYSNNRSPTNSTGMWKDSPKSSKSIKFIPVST
T3 sequence (P08588 whole entry): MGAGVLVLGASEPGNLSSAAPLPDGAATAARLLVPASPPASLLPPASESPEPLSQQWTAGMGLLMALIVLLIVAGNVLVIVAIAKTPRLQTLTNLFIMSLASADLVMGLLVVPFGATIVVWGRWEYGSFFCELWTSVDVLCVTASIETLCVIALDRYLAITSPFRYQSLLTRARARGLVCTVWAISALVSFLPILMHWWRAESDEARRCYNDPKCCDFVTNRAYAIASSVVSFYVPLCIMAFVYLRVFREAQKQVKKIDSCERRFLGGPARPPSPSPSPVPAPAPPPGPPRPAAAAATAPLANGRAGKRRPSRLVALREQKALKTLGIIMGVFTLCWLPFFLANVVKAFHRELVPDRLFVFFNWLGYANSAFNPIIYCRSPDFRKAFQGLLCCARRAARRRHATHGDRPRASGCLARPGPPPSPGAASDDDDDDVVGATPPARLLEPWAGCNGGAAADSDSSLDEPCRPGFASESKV
T2 sequence (P22303 32-614): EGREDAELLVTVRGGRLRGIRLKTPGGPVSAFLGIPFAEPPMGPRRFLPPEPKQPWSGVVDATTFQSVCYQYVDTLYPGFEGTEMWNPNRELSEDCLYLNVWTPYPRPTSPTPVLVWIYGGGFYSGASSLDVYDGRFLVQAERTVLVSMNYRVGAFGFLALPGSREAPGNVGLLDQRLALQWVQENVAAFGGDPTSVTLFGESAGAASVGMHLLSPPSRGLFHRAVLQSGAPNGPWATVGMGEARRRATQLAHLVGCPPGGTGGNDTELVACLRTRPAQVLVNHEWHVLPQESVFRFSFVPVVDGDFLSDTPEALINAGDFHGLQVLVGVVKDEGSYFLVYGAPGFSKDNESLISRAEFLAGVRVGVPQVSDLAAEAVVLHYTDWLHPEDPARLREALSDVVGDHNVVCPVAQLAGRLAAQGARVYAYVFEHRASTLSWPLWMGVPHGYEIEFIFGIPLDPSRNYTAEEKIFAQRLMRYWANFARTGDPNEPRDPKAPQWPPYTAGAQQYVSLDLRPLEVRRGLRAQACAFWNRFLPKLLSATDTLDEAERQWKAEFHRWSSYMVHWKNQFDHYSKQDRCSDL
T5 sequence (P46098 24-478): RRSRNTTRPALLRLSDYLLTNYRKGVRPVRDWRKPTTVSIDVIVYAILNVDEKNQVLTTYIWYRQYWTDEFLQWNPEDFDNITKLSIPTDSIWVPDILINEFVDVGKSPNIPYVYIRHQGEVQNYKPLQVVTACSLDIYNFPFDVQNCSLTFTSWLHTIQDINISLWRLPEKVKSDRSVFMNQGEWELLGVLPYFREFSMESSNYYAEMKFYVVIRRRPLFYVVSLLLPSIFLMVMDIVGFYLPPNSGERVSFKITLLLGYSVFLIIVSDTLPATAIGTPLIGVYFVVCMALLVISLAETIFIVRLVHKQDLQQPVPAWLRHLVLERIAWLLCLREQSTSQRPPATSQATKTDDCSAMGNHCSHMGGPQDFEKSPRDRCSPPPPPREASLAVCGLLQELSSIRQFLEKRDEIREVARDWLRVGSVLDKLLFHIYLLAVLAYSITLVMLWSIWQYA
T4 sequence (P07550 whole entry): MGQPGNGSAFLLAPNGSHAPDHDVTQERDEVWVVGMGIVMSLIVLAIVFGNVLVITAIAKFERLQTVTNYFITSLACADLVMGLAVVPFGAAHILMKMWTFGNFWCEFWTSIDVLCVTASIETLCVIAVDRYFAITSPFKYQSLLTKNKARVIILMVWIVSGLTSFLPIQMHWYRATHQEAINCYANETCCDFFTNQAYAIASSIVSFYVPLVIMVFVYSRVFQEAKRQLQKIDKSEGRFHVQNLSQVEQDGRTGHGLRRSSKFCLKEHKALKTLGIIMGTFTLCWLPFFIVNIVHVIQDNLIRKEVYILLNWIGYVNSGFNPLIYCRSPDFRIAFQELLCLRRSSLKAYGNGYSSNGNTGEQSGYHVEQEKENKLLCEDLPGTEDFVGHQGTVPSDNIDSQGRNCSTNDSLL

Compound: CCC(N)Cc1cc(OC)c(C(F)(F)F)cc1OC (racemic) [Compound 29, 1-(2,5-dimethoxy-4-(trifluoromethyl)phenyl)butan-2-amine]
- Mean brain Concentration (ng/g) ([1]; SC 10 mg/kg, 24 hr): BLQ
- Mean plasma Concentration (ng/mL) [1, 12]: BLQ
- Mean brain Concentration (ng/g) ([1]; SC 10 mg/kg, 48 hr): BLQ
- Mean plasma Concentration (ng/mL) [1, 13]: BLQ
- Kp at 0.083 h [1, 14]: 4.66
- Kp at 0.25 h [1, 14]: 8.91
- Kp at 0.5 h [1, 14]: 8.93
- Kp at 1 h [1, 14]: 18.1
- Kp at 2 h [1, 14]: 18.2
- Kp at 4 h [1, 14]: 15.2
- Kp at 8 h ([1]; male, C57BL/6, mouse, brain and plasma, SC 10 mg/kg, 8 hr, read-out: Brain/Plasma ratio): 12.7
- concentration at 0.083 hr [1, 15]: 2010 ng/g
- concentration at 0.25 hr [1, 15]: 4160 ng/g
- concentration at 0.5 hr [1, 15]: 3770 ng/g
- concentration at 1 hr [1, 15]: 3900 ng/g
- concentration at 2 hr [1, 15]: 1740 ng/g
- concentration at 4 hr [1, 15]: 787 ng/g
- concentration at 8 hr [1, 16]: 170 ng/g
- concentration at 0.083 hr [1, 17]: 431 ng/mL
- concentration at 0.25 hr [1, 17]: 467 ng/mL
- concentration at 0.5 hr [1, 17]: 422 ng/mL
- concentration at 1 hr [1, 17]: 216 ng/mL
- concentration at 2 hr [1, 17]: 95.5 ng/mL
- concentration at 4 hr [1, 17]: 51.9 ng/mL
- concentration at 8 hr ([1]; male, C57BL/6, mouse, plasma, SC 10 mg/kg, 8 hr, LLOQ 5.16 ng/mL, read-out: Mean plasma Concentration): 13.4 ng/mL
- Cmax [1, 18]: 4160 ng/g
- half-life [1, 19]: 1.79 h
- Tmax [1, 20]: 0.25 h
- AUC(0-t) [1, 21]: 798 ng·h/mL
- Cmax [1, 22]: 467 ng/mL
- half-life [1, 23]: 2.11 h
- Tmax [1, 24]: 0.25 h
- EC50 ([2]; 5-HT2a (IP1 agonism), Table 2): 5e-08 M
- EC50 [2, 25]: 6.3e-08 M
- EC50 ([3]; 5-HT2b (IP1 agonism), Table 2): 6.3e-07 M
- EC50 [3, 26]: 4e-07 M

Compound: CC[C@@H](N)Cc1cc(OC)c(C)cc1OC [(R)-Ariadne]
- Emax [4]: 64%
- avoidance behavior [5]: improved avoidance behavior
- agonist activity [6]: Little to no agonist activity

Compound: CCC(N)Cc1cc(OC)c(C)cc1OC (racemic) [Compound 32, 1-(2,5-dimethoxy-4-methylphenyl)butan-2-amine]
- % Response [7]: 12%
- % Response [8]: 17%
- % Response [9]: 22%
- % Response [10]: −13%
- % Response [11]: −5%
- Mean plasma Concentration (ng/mL) ([1]; SC 10 mg/kg, 8 hr, LLOQ 5.16 ng/mL): BLQ
- Mean brain Concentration (ng/g) ([1]; SC 10 mg/kg, 24 hr): BLQ
- Mean plasma Concentration (ng/mL) [1, 12]: BLQ
- Mean brain Concentration (ng/g) ([1]; SC 10 mg/kg, 48 hr): BLQ
- Mean plasma Concentration (ng/mL) [1, 13]: BLQ
- Kp at 0.083 h [1, 14]: 2.43
- Kp at 0.25 h [1, 14]: 5.93
- Kp at 0.5 h [1, 14]: 8.47
- Kp at 1 h [1, 14]: 10.2
- Kp at 2 h [1, 14]: 9.93
- Kp at 4 h [1, 14]: 9.01
- concentration at 0.083 hr [1, 15]: 1630 ng/g
- concentration at 0.25 hr [1, 15]: 4760 ng/g
- concentration at 0.5 hr [1, 15]: 5610 ng/g
- concentration at 1 hr [1, 15]: 5240 ng/g
- concentration at 2 hr [1, 15]: 1710 ng/g
- concentration at 4 hr [1, 15]: 368 ng/g
- concentration at 8 hr [1, 16]: 16.2 ng/g
- concentration at 0.083 hr [1, 17]: 672 ng/mL
- concentration at 0.25 hr [1, 17]: 802 ng/mL
- concentration at 0.5 hr [1, 17]: 662 ng/mL
- concentration at 1 hr [1, 17]: 512 ng/mL
- concentration at 2 hr [1, 17]: 172 ng/mL
- concentration at 4 hr [1, 17]: 40.9 ng/mL
- Cmax [1, 18]: 5610 ng/g
- half-life [1, 19]: 0.89 h
- Tmax [1, 20]: 0.5 h
- AUC(0-t) [1, 21]: 1180 ng·h/mL
- Cmax [1, 22]: 802 ng/mL
- half-life [1, 23]: 0.84 h
- Tmax [1, 24]: 0.25 h
- brain penetration ([1]; mouse, in vivo): high brain penetration
- agonist activity [6]: Little to no agonist activity
- EC50 ([2]; 5-HT2a (IP1 agonism), Table 2): 1.3e-06 M
- EC50 [2, 25]: 1.8e-06 M
- EC50 ([3]; 5-HT2b (IP1 agonism), Table 2): > 3.2e-05 M
- EC50 [3, 26]: 1.7e-06 M
